# Measured values reported in patent US20250026778A1 (TIUMBIO CO., LTD., priority 2021, published 2025).
# Where two headings read alike, the source gives them in different places.
# Target: T1, his-galectin-3 (Homo sapiens, UniProt P17931)
# T1 construct: purchased Abcam
# Assay: TR-FRET assay (in vitro galectin-3 binding inhibitory activity test)
# Settings: compound at 20 μM, 60 nM his-galectin-3, 15 nM biotin-ASF
# Outline: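 Compound is premixed with his-galectin-3 (60 nM final), then biotin-ASF (15 nM), Tb anti-His antibody (2 nM) and streptavidin-d2 (20 nM) are added. After at least 3.5 hours at RT in HEPES/NaCl buffer with Tween 20 and BSA, TR-FRET is read at 615/665 nm. DMSO serves as the uninhibited control, ASF omission as background.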
# [1] = Table 1, read-out: % Inhibitory activity (at 20 μM)
# [2] = Table 2, read-out: % Inhibitory activity (at 20 μM)
# [3] = Table 3, found values, read-out: % Inhibitory activity (at 20 μM)
# [4] = read-out: % Inhibitory activity (at 20 μM), Table 1
# [5] = read-out: % Inhibitory activity (at 20 μM), Table 3, found values
# T1 sequence (P17931 whole entry): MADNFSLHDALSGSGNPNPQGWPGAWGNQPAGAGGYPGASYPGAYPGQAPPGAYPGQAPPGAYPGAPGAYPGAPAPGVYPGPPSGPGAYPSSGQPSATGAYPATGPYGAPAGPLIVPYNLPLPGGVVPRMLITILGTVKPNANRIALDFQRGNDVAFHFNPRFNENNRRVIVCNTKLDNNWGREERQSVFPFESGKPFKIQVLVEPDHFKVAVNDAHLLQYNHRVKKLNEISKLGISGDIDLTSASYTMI
inhibition at 20 µM [1],Structure (SMILES),also measured
< 25%,"O=C(N[C@@H]1CCO[C@]12O[C@H](CO)[C@H](O)[C@H](n1cc(-c3cc(F)c(F)c(F)c3)nn1)[C@H]2O)C(F)(F)c1ccccc1 [Compound A147, N-((4R,5S,7R,8R,9S,10R)-8,10-dihydroxy-7-(hydroxymethyl)-9-(4-(3,4,5-trifluorophenyl)-1H-1,2,3-triazol-1-yl)-1,6-dioxaspiro[4.5]decan-4-yl)-2,2-difluoro-2-phenylacetamide]",–
–,"CC(C(=O)N[C@@H]1CCO[C@]12O[C@H](CO)[C@H](O)[C@H](n1cc(-c3cc(F)c(F)c(F)c3)nn1)[C@H]2O)c1cccc(Cl)c1 (single isomer, unassigned) [Compound A168]",% Inhibitory activity (at 20 μM) (Table 2): B (inhibition rate was 50%0 to 7500 (exclusive of 75%))
–,"O=C(N[C@@H]1CCO[C@]12O[C@H](CO)[C@H](O)[C@H](n1cc(-c3cc(F)c(F)c(F)c3)nn1)[C@H]2O)c1csc2ccc(F)cc12 [Compound A249, N-((4R,5S,7R,8R,9S,10R)-8,10-dihydroxy-7-(hydroxymethyl)-9-(4-(3,4,5-trifluorophenyl)-1H-1,2,3-triazol-1-yl)-1,6-dioxaspiro[4.5]decan-4-yl)-5-fluorobenzo[b]thiophene-3-carboxamide]",inhibition at 20 µM [2]: > 75%; inhibition at 20 µM [3]: 89.9%
25 to 50%,"COC(=O)CO[C@@H]1[C@@H](n2cc(-c3cc(F)c(F)c(F)c3)nn2)[C@@H](O)[C@@H](CO)O[C@@]12CCCCO2 [Compound A32, methyl-2-(((2R,3R,4S,5R,6S)-3-hydroxy-2-(hydroxymethyl)-4-(4-(3,4,5-trifluorophenyl)-1H-1,2,3-triazol-1-yl)-1,7-dioxaspiro[5.5]undecan-5-yl)oxy)acetate]",inhibition at 20 µM [3]: 36.7%
< 25%,"COc1ccc2c(c1)CC[C@]1(O2)O[C@H](CO)[C@H](O)[C@H](OCc2cc3c(F)c(F)ccc3oc2=O)[C@H]1O [Compound A08, 3-((((2R,3′R,4'S,5'S,6′R)-3′,5′-dihydroxy-6′-(hydroxymethyl)-6-methoxy-3′,4′,5′,6′-tetrahydrospiro[chromane-2,2′-pyran]-4′-yl)oxy)methyl)-5,6-difluoro-2H-chromen-2-one]",inhibition at 20 µM [3]: 21.8%
25 to 50%,"O=C(CO[C@@H]1[C@@H](n2cc(-c3cc(F)c(F)c(F)c3)nn2)[C@@H](O)[C@@H](CO)O[C@@]12CCCO2)N1CCC(O)CC1 [Compound A22, 2-(((5S,7R,8R,9S,10R)-8-hydroxy-7-(hydroxymethyl)-9-(4-(3,4,5-trifluorophenyl)-1H-1,2,3-triazol-1-yl)-1,6-dioxaspiro[4.5]decan-10-yl)oxy)-1-(4-hydroxypiperidin1-yl)ethanone]",inhibition at 20 µM [3]: 28.1%
25 to 50%,"O=C(CO[C@@H]1[C@@H](n2cc(-c3cc(F)c(F)c(F)c3)nn2)[C@@H](O)[C@@H](CO)O[C@@]12CCCO2)c1ccccc1 [Compound A20, 2-(((5S,7R,8R,9S,10R)-8-hydroxy-7-(hydroxymethyl)-9-(4-(3,4,5-trifluorophenyl)-1H-1,2,3-triazol-1-yl)-1,6-dioxaspiro[4.5]decan-10-yl)oxy)-1-phenylethanone]",–
50 to 75%,"O=C(O)CO[C@@H]1[C@@H](n2cc(-c3cc(F)c(F)c(F)c3)nn2)[C@@H](O)[C@@H](CO)O[C@@]12CCCO2 [Compound A21, 2-(((5S,7R,8R,9S,10R)-8-hydroxy-7-(hydroxymethyl)-9-(4-(3,4,5-trifluorophenyl)-1H-1,2,3-triazol-1-yl)-1,6-dioxaspiro[4.5]decan-10-yl)oxy)acetic acid]",–
< 25%,"O=C(N[C@@H]1CCO[C@]12O[C@H](CO)[C@H](O)[C@H](n1cc(-c3cc(F)c(F)c(F)c3)nn1)[C@H]2O)C1(c2ccccc2)CC1 [Compound A114, N-((4R,5S,7R,8R,9S,10R)-8,10-dihydroxy-7-(hydroxymethyl)-9-(4-(3,4,5-trifluorophenyl)-1H-1,2,3-triazol-1-yl)-1,6-dioxaspiro[4.5]decan-4-yl)-1-phenylcyclopropanecarboxamide]",–
–,"O=C(N[C@@H]1CCO[C@]12O[C@H](CO)[C@H](O)[C@H](n1cc(-c3cc(F)c(F)c(F)c3)nn1)[C@H]2O)c1c[nH]c2ccc(Cl)cc12 [Compound A219, 5-chloro-N-((4R,5S,7R,8R,9S,10R)-8,10-dihydroxy-7-(hydroxymethyl)-9-(4-(3,4,5-trifluorophenyl)-1H-1,2,3-triazol-1-yl)-1,6-dioxaspiro[4.5]decan-4-yl)-1H-indole-3-carboxamide]",inhibition at 20 µM [2]: 50 to 75%
–,"OC[C@H]1O[C@@]2(CCCO2)[C@H](OCc2cccc(F)c2F)[C@@H](n2cc(-c3cc(F)c(F)c(F)c3)nn2)[C@H]1O [Compound A65, (5S,7R,8R,9S,10R)-10-((2,3-difluorobenzyl)oxy)-7-(hydroxymethyl)-9-(4-(3,4,5-trifluorophenyl)-1H-1,2,3-triazol-1-yl)-1,6-dioxaspiro[4.5]decan-8-ol]",inhibition at 20 µM [4]: < 25%; inhibition at 20 µM [5]: 17.3%
25 to 50%,"O=C(O[C@@H]1[C@@H](n2cc(-c3cc(F)c(F)c(F)c3)nn2)[C@@H](O)[C@@H](CO)O[C@@]12CCCO2)c1ccccc1 [Compound A31, (5S,7R,8R,9S,10R)-8-hydroxy-7-(hydroxymethyl)-9-(4-(3,4,5-trifluorophenyl)-1H-1,2,3-triazol-1-yl)-1,6-dioxaspiro[4.5]decan-10-yl benzoate]",–
–,"COc1cc(C(=O)N[C@@H]2CCO[C@]23O[C@H](CO)[C@H](O)[C@H](n2cc(-c4cc(F)c(F)c(F)c4)nn2)[C@H]3O)c2ccccc2c1 [Compound A241, N-((4R,5S,7R,8R,9S,10R)-8,10-dihydroxy-7-(hydroxymethyl)-9-(4-(3,4,5-trifluorophenyl)-1H-1,2,3-triazol-1-yl)-1,6-dioxaspiro[4.5]decan-4-yl)-3-methoxy-1-naphthamide]",inhibition at 20 µM [2]: > 75%
> 75%,"OC[C@H]1O[C@]2(OCC[C@H]2NCc2cccc(Cl)c2)[C@H](O)[C@@H](n2cc(-c3cc(F)c(F)c(F)c3)nn2)[C@H]1O [Compound A86, (4R,5S,7R,8R,9S,10R)-4-((3-chlorobenzyl)amino)-7-(hydroxymethyl)-9-(4-(3,4,5-trifluorophenyl)-1H-1,2,3-triazol-1-yl)-1,6-dioxaspiro[4.5]decane-8,10-diol]",inhibition at 20 µM [3]: 80.3%
25 to 50%,"O=C(Cc1cccc2ccccc12)N[C@@H]1CCO[C@]12O[C@H](CO)[C@H](O)[C@H](n1cc(-c3cc(F)c(F)c(F)c3)nn1)[C@H]2O [Compound A111, N-((4R,5S,7R,8R,9S,10R)-8,10-dihydroxy-7-(hydroxymethyl)-9-(4-(3,4,5-trifluorophenyl)-1H-1,2,3-triazol-1-yl)-1,6-dioxaspiro[4.5]decan-4-yl)-2-(naphthalen-1-yl)acetamide]",–
–,"OC[C@H]1O[C@@]2(CCCO2)[C@H](OCc2cccc(Cl)c2)[C@@H](n2cc(-c3cc(F)c(F)c(F)c3)nn2)[C@H]1O [Compound A64, (5S,7R,8R,9S,10R)-10-((3-chlorobenzyl)oxy)-7-(hydroxymethyl)-9-(4-(3,4,5-trifluorophenyl)-1H-1,2,3-triazol-1-yl)-1,6-dioxaspiro[4.5]decan-8-ol]",inhibition at 20 µM [4]: < 25%
< 25%,"O=C(O[C@@H]1[C@@H](n2cc(-c3cc(F)c(F)c(F)c3)nn2)[C@@H](O)[C@@H](CO)O[C@@]12CCCO2)c1ccc(F)cc1F [Compound A78, (5S,7R,8R,9S,10R)-8-hydroxy-7-(hydroxymethyl)-9-(4-(3,4,5-trifluorophenyl)-1H-1,2,3-triazol-1-yl)-1,6-dioxaspiro[4.5]decan-10-yl 2,4-difluorobenzoate]",–
–,"O=C(N[C@@H]1CCO[C@]12O[C@H](CO)[C@H](O)[C@H](n1cc(-c3cc(F)c(F)c(F)c3)nn1)[C@H]2O)c1cccc(Cl)c1 [Compound A119, 3-chloro-N-((4R,5S,7R,8R,9S,10R)-8,10-dihydroxy-7-(hydroxymethyl)-9-(4-(3,4,5-trifluorophenyl)-1H-1,2,3-triazol-1-yl)-1,6-dioxaspiro[4.5]decan-4-yl)benzamide]",inhibition at 20 µM [4]: > 75%; inhibition at 20 µM [5]: 93.7%
> 75%,"O=C(N[C@@H]1CCO[C@]12O[C@H](CO)[C@H](O)[C@H](n1cc(-c3cc(F)c(F)c(F)c3)nn1)[C@H]2O)c1cccc(-c2ccccc2)c1 [Compound A134, N-((4R,5S,7R,8R,9S,10R)-8,10-dihydroxy-7-(hydroxymethyl)-9-(4-(3,4,5-trifluorophenyl)-1H-1,2,3-triazol-1-yl)-1,6-dioxaspiro[4.5]decan-4-yl)-[1.1′ biphenyl]-3-carboxamide]",–
25 to 50%,"OC[C@H]1O[C@@]2(CCCO2)[C@H](OCC(F)F)[C@@H](n2cc(-c3cc(F)c(F)c(F)c3)nn2)[C@H]1O [Compound A27, (5S,7R,8R,9S,10R)-10-(2,2-difluoroethoxy)-7-(hydroxymethyl)-9-(4-(3,4,5-trifluorophenyl)-1H-1,2,3-triazol-1-yl)-1,6-dioxaspiro[4.5]decan-8-ol]",–
< 25%,"O=C1CCCC2(O[C@H](CO)[C@H](O)[C@H](n3cc(-c4cc(F)c(F)c(F)c4)nn3)[C@H]2O)N1CC1CCS(=O)(=O)CC1 (stereo partly drawn) [Compound A95, (2R,3R,4S,5R)-7-((1,1-dioxidotetrahydro-2H-thiopyran-4-yl)methyl)-3,5-dihydroxy-2-(hydroxymethyl)-4-(4-(3,4,5-trifluorophenyl)-1H-1,2,3-triazol-1-yl)-1-oxa-7-azaspiro[5.5]undecan-8-one]",–
